From ChEMBL document CHEMBL3616368, “Induction of apoptosis by genipin inhibits cell proliferation in AGS human gastric cancer cells via Egr1/p21 signaling pathway” (Bioorg Med Chem Lett, 2015)
Calls of active or inactive are those of the source. The calls are words filed in the database; no cut-off is given here.

Columns and labels:
AGS [1] = assay: Cytotoxicity against human AGS cells assessed as reduction in cell viability after 6 hrs by MTT assay; type: functional, cell-based
HEK293 [2] = assay: Cytotoxicity against HEK293 cells assessed as reduction in cell viability at 12.5 to 100 uM after 6 hrs by MTT assay; type: cell-based; details: human, hek293, 6 h
[3] = molecular target: Early growth response protein 1 (Homo sapiens) (UniProt P18146); assay: Activation of Egr1 in human AGS cells assessed as increase in cleaved caspase-3 level at 100 uM by Western blot analysis in presence of caspase-3 inhibitor Ac-DEVD-CHO; type: cell-based
Early growth response protein 1 (Homo sapiens), sequence (P18146 whole entry, looked up): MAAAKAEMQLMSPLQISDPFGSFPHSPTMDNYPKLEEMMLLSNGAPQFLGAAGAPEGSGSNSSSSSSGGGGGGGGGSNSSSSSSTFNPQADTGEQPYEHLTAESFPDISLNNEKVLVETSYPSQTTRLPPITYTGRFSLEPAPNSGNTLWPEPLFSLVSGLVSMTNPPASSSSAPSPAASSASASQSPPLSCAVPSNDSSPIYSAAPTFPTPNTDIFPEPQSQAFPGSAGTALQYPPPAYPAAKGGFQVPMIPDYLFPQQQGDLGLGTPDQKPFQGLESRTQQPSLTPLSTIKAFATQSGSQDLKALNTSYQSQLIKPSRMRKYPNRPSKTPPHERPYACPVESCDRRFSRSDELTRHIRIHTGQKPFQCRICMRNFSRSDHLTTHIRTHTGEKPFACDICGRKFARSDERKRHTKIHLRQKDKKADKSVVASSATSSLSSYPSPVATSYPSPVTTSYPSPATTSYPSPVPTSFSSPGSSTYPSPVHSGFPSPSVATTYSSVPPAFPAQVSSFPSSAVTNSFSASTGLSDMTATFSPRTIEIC

[4] = molecular target: Early growth response protein 1 (Homo sapiens) (UniProt P18146); assay: Activation of Egr1 in human AGS cells assessed as increase in cleaved caspase-3 level at 100 uM by Western blot analysis; type: cell-based
AGS [5] = assay: Cytotoxicity against human AGS cells assessed as cell viability at 100 uM after 6 hrs by MTT assay in presence of caspase-3 inhibitor Ac-DEVD-CHO; type: functional, cell-based
AGS [6] = assay: Cytotoxicity against human AGS cells assessed as cell viability at 100 uM after 6 hrs by MTT assay; type: functional, cell-based
[7] = molecular target: Early growth response protein 1 (Homo sapiens) (UniProt P18146); assay: Activation of Egr1 in human AGS cells assessed as increase in cleaved PARP level at 100 uM by Western blot analysis; type: cell-based
[8] = molecular target: Early growth response protein 1 (Homo sapiens) (UniProt P18146); assay: Activation of Egr1 in human AGS cells assessed as increase in cleaved caspase-9 level at 100 uM by Western blot analysis; type: cell-based
[9] = molecular target: Early growth response protein 1 (Homo sapiens) (UniProt P18146); assay: Activation of Egr1 in human AGS cells assessed as increase in cleaved caspase-7 level at 100 uM by Western blot analysis; type: cell-based
HEK293 [10] = assay: Induction of apoptosis in HEK293 cells assessed as increase in cleaved PARP level at 100 uM by Western blot analysis; type: cell-based; details: human, hek293, 100 µM
HEK293 [11] = assay: Induction of apoptosis in HEK293 cells assessed as increase in cleaved caspase-9 level at 100 uM by Western blot analysis; type: cell-based; details: human, hek293, 100 µM
HEK293 [12] = assay: Induction of apoptosis in HEK293 cells assessed as increase in cleaved caspase-7 level at 100 uM by Western blot analysis; type: cell-based; details: human, hek293, 100 µM
HEK293 [13] = assay: Induction of apoptosis in HEK293 cells assessed as increase in cleaved caspase-3 level at 100 uM by Western blot analysis; type: cell-based; details: human, hek293, 100 µM
[14] = molecular target: Early growth response protein 1 (Homo sapiens) (UniProt P18146); assay: Activation of Egr1 in human AGS cells assessed as increase in intracellular accumulation of reactive oxygen species at 100 uM by H2DCFDA probe-based flow cytometric analysis relative to control; type: cell-based
[15] = molecular target: Early growth response protein 1 (Homo sapiens) (UniProt P18146); assay: Activation of Egr1 in human AGS cells assessed as increase in loss of mitochondrial membrane potential after 6 hrs by Rh-123 staining-based flow cytometric analysis relative to control; type: cell-based
AGS [16] = assay: Cell cycle arrest in human AGS cells assessed as accumulation at G0/G1 phase at 12.5 uM after 6 hrs by propidium iodide staining-based flow cytometric analysis (reference value: 52.82 +/- 2.87%); type: functional
AGS [17] = assay: Cell cycle arrest in human AGS cells assessed as accumulation at G0/G1 phase at 25 uM after 6 hrs by propidium iodide staining-based flow cytometric analysis (reference value: 52.82 +/- 2.87%); type: functional
AGS [18] = assay: Cell cycle arrest in human AGS cells assessed as accumulation at G0/G1 phase at 50 uM after 6 hrs by propidium iodide staining-based flow cytometric analysis (reference value: 52.82 +/- 2.87%); type: functional
AGS [19] = assay: Cell cycle arrest in human AGS cells assessed as accumulation at G0/G1 phase at 100 uM after 6 hrs by propidium iodide staining-based flow cytometric analysis (reference value: 52.82 +/- 2.87%); type: functional
AGS [20] = assay: Cell cycle arrest in human AGS cells assessed as accumulation at S phase at 12.5 uM after 6 hrs by propidium iodide staining-based flow cytometric analysis (reference value: 21.40 +/- 2.87%); type: functional
AGS [21] = assay: Cell cycle arrest in human AGS cells assessed as accumulation at S phase at 25 uM after 6 hrs by propidium iodide staining-based flow cytometric analysis (reference value: 21.40 +/- 2.87%); type: functional
AGS [22] = assay: Cell cycle arrest in human AGS cells assessed as accumulation at S phase at 50 uM after 6 hrs by propidium iodide staining-based flow cytometric analysis (reference value: 21.40 +/- 2.87%); type: functional
AGS [23] = assay: Cell cycle arrest in human AGS cells assessed as accumulation at S phase at 100 uM after 6 hrs by propidium iodide staining-based flow cytometric analysis (reference value: 21.40 +/- 2.87%); type: functional
AGS [24] = assay: Cell cycle arrest in human AGS cells assessed as accumulation at G2/M phase at 12.5 uM after 6 hrs by propidium iodide staining-based flow cytometric analysis (reference value: 23.05 +/- 3.15%); type: functional
AGS [25] = assay: Cell cycle arrest in human AGS cells assessed as accumulation at G2/M phase at 25 uM after 6 hrs by propidium iodide staining-based flow cytometric analysis (reference value: 23.05 +/- 3.15%); type: functional
AGS [26] = assay: Cell cycle arrest in human AGS cells assessed as accumulation at G2/M phase at 50 uM after 6 hrs by propidium iodide staining-based flow cytometric analysis (reference value: 23.05 +/- 3.15%); type: functional
AGS [27] = assay: Cell cycle arrest in human AGS cells assessed as accumulation at G2/M phase at 100 uM after 6 hrs by propidium iodide staining-based flow cytometric analysis (reference value: 23.05 +/- 3.15%); type: functional
AGS [28] = assay: Cell cycle arrest in human AGS cells assessed as accumulation at G2/M phase after 6 hrs by propidium iodide staining-based flow cytometric analysis; type: functional
[29] = molecular target: Early growth response protein 1 (Homo sapiens) (UniProt P18146); assay: Activation of Egr1 in human AGS cells assessed as downregulation of cyclin A expression at 12.5 to 100 uM by Western blot analysis; type: cell-based
[30] = molecular target: Early growth response protein 1 (Homo sapiens) (UniProt P18146); assay: Activation of Egr1 in human AGS cells assessed as downregulation of cyclin E expression at 12.5 to 100 uM by Western blot analysis; type: cell-based
[31] = molecular target: Early growth response protein 1 (Homo sapiens) (UniProt P18146); assay: Activation of Egr1 in human AGS cells assessed as upregulation of protein expression by Western blot analysis; type: cell-based
[32] = molecular target: Early growth response protein 1 (Homo sapiens) (UniProt P18146); assay: Activation of Egr1 in human AGS cells assessed as upregulation of p21 expression by Western blot analysis; type: cell-based
AGS [33] = assay: Upregulation of Egr1 mRNA expression in human AGS cells by RT-qPCR analysis; type: functional, cell-based
[34] = molecular target: Early growth response protein 1 (Homo sapiens) (UniProt P18146); assay: Activation of Egr1 in human AGS cells assessed as upregulation of p21 mRNA expression by RT-qPCR analysis; type: cell-based
[35] = molecular target: Early growth response protein 1 (Homo sapiens) (UniProt P18146); assay: Activation of Egr1 in human AGS cells assessed as upregulation of protein expression after 6 hrs by DAPI staining-based fluorescence microscopic analysis; type: cell-based
[36] = molecular target: Early growth response protein 1 (Homo sapiens) (UniProt P18146); assay: Activation of Egr1 in human AGS cells assessed as induction of p21 promoter activity by dual luciferase reporter gene assay; type: cell-based
[37] = molecular target: Early growth response protein 1 (Homo sapiens) (UniProt P18146); assay: Activation of Egr1 in human AGS cells assessed as induction of p21 promoter activity by ChIP assay; type: cell-based
[38] = molecular target: Early growth response protein 1 (Homo sapiens) (UniProt P18146); assay: Activation of Egr1 in human AGS cells assessed as increase in interaction with p21 promoter by dual luciferase reporter gene assay; type: cell-based
[39] = molecular target: Early growth response protein 1 (Homo sapiens) (UniProt P18146); assay: Activation of Egr1 in human AGS cells assessed as increase in interaction with p21 promoter by ChIP assay; type: cell-based
AGS [40] = assay: Upregulation of Egr1 mRNA expression in human AGS cells at 50 to 100 uM by RT-qPCR analysis in presence of si-Egr1 relative to control; type: functional, cell-based
[41] = molecular target: Early growth response protein 1 (Homo sapiens) (UniProt P18146); assay: Activation of Egr1 in human AGS cells assessed as upregulation of p21 mRNA expression at 50 to 100 uM by RT-qPCR analysis in presence of si-Egr1 relative to control; type: cell-based
[42] = molecular target: Early growth response protein 1 (Homo sapiens) (UniProt P18146); assay: Activation of Egr1 in human AGS cells assessed as upregulation of protein expression at 50 to 100 uM by Western blot analysis in presence of si-Egr1; type: cell-based
[43] = molecular target: Early growth response protein 1 (Homo sapiens) (UniProt P18146); assay: Activation of Egr1 in human AGS cells assessed as upregulation of p21 expression at 50 to 100 uM by Western blot analysis in presence of si-Egr1; type: cell-based
[44] = molecular target: Early growth response protein 1 (Homo sapiens) (UniProt P18146); assay: Activation of Egr1 in human AGS cells assessed as induction of p21 promoter activity at 12.5 to 100 uM by dual luciferase reporter gene assay in presence of si-Egr1; type: cell-based
[45] = molecular target: Early growth response protein 1 (Homo sapiens) (UniProt P18146); assay: Activation of Egr1 in human AGS cells assessed as increase in cleaved caspase-3 level at 50 to 100 uM by Western blot analysis in presence of si-Egr1; type: cell-based
AGS [46] = assay: Cytotoxicity against human AGS cells assessed as cell viability at 100 uM after 6 hrs by MTT assay in presence of si-Egr1; type: functional, cell-based
[47] = molecular target: Early growth response protein 1 (Homo sapiens) (UniProt P18146); assay: Activation of Egr1 in human AGS cells transfected with p21-pcDNA3 assessed as increase in cleaved PARP level at 50 to 100 uM by Western blot analysis; type: cell-based
AGS [48] = assay: Cytotoxicity against human AGS cells transfected with p21-pcDNA3 assessed as cell viability at 12.5 to 100 uM after 6 hrs by MTT assay relative to control; type: functional, cell-based
[49] = molecular target: Early growth response protein 1 (Homo sapiens) (UniProt P18146); assay: Activation of Egr1 in human AGS cells transfected with p21-pcDNA3 assessed as increase in intracellular accumulation of reactive oxygen species at 100 uM by H2DCFDA probe-based flow cytometric analysis relative to control; type: cell-based

COC(=O)C1=CO[C@@H](O)[C@@H]2C(CO)=CC[C@H]12 [GENIPIN]
Activity (AGS [1]): Dose-dependent effect | Activity (HEK293 [2]): Non-toxic | Activity [3]: inactive | Activity [4]: Active | Activity (AGS [5]): inactive | Activity (AGS [6]): Active | Activity [7]: Active | Activity [8]: Active | Activity [9]: Active | Activity (HEK293 [10]): Non-toxic | Activity (HEK293 [11]): Non-toxic | Activity (HEK293 [12]): Non-toxic | Activity (HEK293 [13]): Non-toxic | Activity [14]: Active | Activity [15]: Dose-dependent effect | Activity (AGS [16]): 48.45% | Activity (AGS [17]): 42.33% | Activity (AGS [18]): 35.97% | Activity (AGS [19]): 36.88% | Activity (AGS [20]): 22.67% | Activity (AGS [21]): 24.66% | Activity (AGS [22]): 28.54% | Activity (AGS [23]): 27.48% | Activity (AGS [24]): 26.34% | Activity (AGS [25]): 30.53% | Activity (AGS [26]): 33.53% | Activity (AGS [27]): 33% | Activity (AGS [28]): Dose-dependent effect | Activity [29]: Active | Activity [30]: Active | Activity [31]: Dose-dependent effect | Activity [32]: Dose-dependent effect | Activity (AGS [33]): Dose-dependent effect | Activity [34]: Dose-dependent effect | Activity [35]: Dose-dependent effect | Activity [36]: Dose-dependent effect | Activity [37]: Dose-dependent effect | Activity [38]: Dose-dependent effect | Activity [39]: Dose-dependent effect | Activity (AGS [40]): inactive | Activity [41]: inactive | Activity [42]: inactive | Activity [43]: inactive | Activity [44]: inactive | Activity [45]: inactive | Activity (AGS [46]): inactive | Activity [47]: Active | Activity (AGS [48]): Active | Activity [49]: Active
